Laboratory results from the NIST ThermoML archive (doi:10.1016/j.jct.2015.07.048).
± gives the expanded uncertainty stated by the source.

Experiment: xn = mol fraction of the nth substance listed
Settings: 100 kPa, Liquid; for viscosity: Cone and plate viscometry; for electrical conductivity: Direct current cell with electrodes; for mass density: Vibrating tube method

CCCn1cc[n+](C)c1.O=S(=O)([N-]S(=O)(=O)C(F)(F)F)C(F)(F)F + O=C1CCCO1
Settings | electrical conductivity [S/m] | mass density [kg/m3] | viscosity [mPa·s]
293.15 K, x1 = 0.05 | 1.04 ± 0.033 | 1185.12 ± 2.2 | –
293.15 K, x1 = 0.0999 | – | 1229.6 ± 2 | –
293.15 K, x1 = 0.1 | 1.37 ± 0.042 | – | 3.42 ± 0.08
293.15 K, x1 = 0.15 | 1.45 ± 0.044 | – | 4.3 ± 0.1
293.15 K, x1 = 0.1999 | 1.37 ± 0.041 | 1295.75 ± 1.9 | 5.28 ± 0.12
293.15 K, x1 = 0.2912 | 1.2 ± 0.036 | 1338.94 ± 1.8 | –
293.15 K, x1 = 0.2996 | – | – | 8.1 ± 0.18
293.15 K, x1 = 0.4005 | 0.89 ± 0.027 | 1377.51 ± 1.7 | 11.48 ± 0.25
293.15 K, x1 = 0.4986 | 0.707 ± 0.021 | 1403.93 ± 1.7 | 15.9 ± 0.34
293.15 K, x1 = 0.6 | 0.595 ± 0.018 | 1425.6 ± 1.7 | 21.71 ± 0.46
293.15 K, x1 = 0.6997 | 0.498 ± 0.015 | 1442.85 ± 1.7 | 28.23 ± 0.59
293.15 K, x1 = 0.7998 | 0.428 ± 0.013 | 1457.11 ± 1.6 | 35.85 ± 0.75
293.15 K, x1 = 0.8818 | 0.387 ± 0.012 | 1467.07 ± 1.6 | 43.07 ± 0.9
293.15 K, x1 = 1 | 0.355 ± 0.011 | 1479.32 ± 1.6 | 54.19 ± 1.1
298.15 K, x1 = 0.05 | 1.13 ± 0.036 | 1180.18 ± 2.2 | –
298.15 K, x1 = 0.0999 | – | 1224.68 ± 2 | –
298.15 K, x1 = 0.1 | 1.5 ± 0.046 | – | 3.16 ± 0.07
298.15 K, x1 = 0.15 | 1.6 ± 0.048 | – | 3.94 ± 0.09
298.15 K, x1 = 0.1999 | 1.52 ± 0.046 | 1290.81 ± 1.9 | 4.75 ± 0.11
298.15 K, x1 = 0.2912 | 1.38 ± 0.041 | 1333.98 ± 1.8 | –
298.15 K, x1 = 0.2996 | – | – | 7.17 ± 0.16
298.15 K, x1 = 0.4005 | 1.1 ± 0.033 | 1372.56 ± 1.7 | 9.96 ± 0.21
298.15 K, x1 = 0.4986 | 0.87 ± 0.026 | 1398.93 ± 1.7 | 13.62 ± 0.29
298.15 K, x1 = 0.6 | 0.692 ± 0.021 | 1420.58 ± 1.7 | 18.38 ± 0.39
298.15 K, x1 = 0.6997 | 0.604 ± 0.018 | 1437.83 ± 1.7 | 23.68 ± 0.5
298.15 K, x1 = 0.7998 | 0.526 ± 0.016 | 1452.07 ± 1.6 | 29.72 ± 0.62
298.15 K, x1 = 0.8818 | 0.472 ± 0.014 | 1462.02 ± 1.6 | 35.46 ± 0.74
298.15 K, x1 = 1 | 0.435 ± 0.013 | 1474.24 ± 1.6 | 43.94 ± 0.9
303.15 K, x1 = 0.05 | 1.22 ± 0.039 | 1175.2 ± 2.2 | –
303.15 K, x1 = 0.0999 | – | 1219.69 ± 2 | –
303.15 K, x1 = 0.1 | 1.63 ± 0.05 | – | 2.92 ± 0.07
303.15 K, x1 = 0.15 | 1.75 ± 0.052 | – | 3.6 ± 0.08
303.15 K, x1 = 0.1999 | 1.67 ± 0.05 | 1285.84 ± 1.9 | 4.3 ± 0.09
303.15 K, x1 = 0.2912 | 1.56 ± 0.047 | 1329.01 ± 1.8 | –
303.15 K, x1 = 0.2996 | – | – | 6.31 ± 0.14
303.15 K, x1 = 0.4005 | 1.22 ± 0.037 | 1367.63 ± 1.7 | 8.69 ± 0.19
303.15 K, x1 = 0.4986 | 1.02 ± 0.031 | 1394.03 ± 1.7 | 11.81 ± 0.25
303.15 K, x1 = 0.6 | 0.796 ± 0.024 | 1415.71 ± 1.7 | 15.67 ± 0.33
303.15 K, x1 = 0.6997 | 0.714 ± 0.021 | 1432.97 ± 1.7 | 19.81 ± 0.41
303.15 K, x1 = 0.7998 | 0.629 ± 0.019 | 1447.22 ± 1.6 | 24.68 ± 0.51
303.15 K, x1 = 0.8818 | 0.564 ± 0.017 | 1457.17 ± 1.6 | 28.84 ± 0.6
303.15 K, x1 = 1 | 0.521 ± 0.016 | 1469.4 ± 1.6 | 35.92 ± 0.74
308.15 K, x1 = 0.05 | 1.31 ± 0.042 | 1170.18 ± 2.2 | –
308.15 K, x1 = 0.0999 | – | 1214.67 ± 2 | –
308.15 K, x1 = 0.1 | 1.76 ± 0.054 | – | 2.68 ± 0.06
308.15 K, x1 = 0.15 | 1.9 ± 0.057 | – | 3.3 ± 0.07
308.15 K, x1 = 0.1999 | 1.85 ± 0.056 | 1280.78 ± 1.9 | 3.91 ± 0.09
308.15 K, x1 = 0.2912 | 1.75 ± 0.052 | 1323.97 ± 1.8 | –
308.15 K, x1 = 0.2996 | – | – | 5.67 ± 0.12
308.15 K, x1 = 0.4005 | 1.44 ± 0.043 | 1362.59 ± 1.7 | 7.71 ± 0.16
308.15 K, x1 = 0.4986 | 1.27 ± 0.038 | 1389.01 ± 1.7 | 10.31 ± 0.22
308.15 K, x1 = 0.6 | 0.992 ± 0.03 | 1410.7 ± 1.7 | 13.51 ± 0.28
308.15 K, x1 = 0.6997 | 0.827 ± 0.025 | 1427.98 ± 1.7 | 17.13 ± 0.36
308.15 K, x1 = 0.7998 | 0.737 ± 0.022 | 1442.24 ± 1.6 | 21 ± 0.44
308.15 K, x1 = 0.8818 | 0.667 ± 0.02 | 1452.2 ± 1.6 | 24.51 ± 0.51
308.15 K, x1 = 1 | 0.611 ± 0.018 | 1464.43 ± 1.6 | 30 ± 0.62
313.15 K, x1 = 0.05 | 1.42 ± 0.045 | 1165.15 ± 2.2 | –
313.15 K, x1 = 0.0999 | – | 1209.63 ± 2 | –
313.15 K, x1 = 0.1 | 1.9 ± 0.058 | – | 2.49 ± 0.06
313.15 K, x1 = 0.15 | 2.06 ± 0.062 | – | 3.06 ± 0.07
313.15 K, x1 = 0.1999 | 2.02 ± 0.061 | 1275.71 ± 1.9 | 3.57 ± 0.08
313.15 K, x1 = 0.2912 | 1.94 ± 0.058 | 1318.9 ± 1.8 | –
313.15 K, x1 = 0.2996 | – | – | 5.1 ± 0.11
313.15 K, x1 = 0.4005 | 1.64 ± 0.049 | 1357.55 ± 1.7 | 6.92 ± 0.15
313.15 K, x1 = 0.4986 | 1.44 ± 0.043 | 1383.98 ± 1.7 | 9.13 ± 0.19
313.15 K, x1 = 0.6 | 1.15 ± 0.035 | 1405.67 ± 1.7 | 11.92 ± 0.25
313.15 K, x1 = 0.6997 | 1.03 ± 0.031 | 1422.96 ± 1.7 | 14.78 ± 0.31
313.15 K, x1 = 0.7998 | 0.849 ± 0.026 | 1437.25 ± 1.6 | 17.93 ± 0.37
313.15 K, x1 = 0.8818 | 0.789 ± 0.024 | 1447.22 ± 1.6 | 20.73 ± 0.43
313.15 K, x1 = 1 | 0.71 ± 0.021 | 1459.44 ± 1.6 | 25.32 ± 0.52
318.15 K, x1 = 0.05 | 1.52 ± 0.048 | 1159.99 ± 2.2 | –
318.15 K, x1 = 0.0999 | – | 1204.53 ± 2 | –
318.15 K, x1 = 0.1 | 2.03 ± 0.062 | – | 2.3 ± 0.05
318.15 K, x1 = 0.15 | 2.22 ± 0.067 | – | 2.8 ± 0.06
318.15 K, x1 = 0.1999 | 2.24 ± 0.067 | 1270.69 ± 1.9 | 3.25 ± 0.07
318.15 K, x1 = 0.2912 | 2.13 ± 0.064 | 1313.92 ± 1.8 | –
318.15 K, x1 = 0.2996 | – | – | 4.6 ± 0.1
318.15 K, x1 = 0.4005 | 1.92 ± 0.058 | 1352.58 ± 1.7 | 6.2 ± 0.13
318.15 K, x1 = 0.4986 | 1.68 ± 0.051 | 1379.05 ± 1.7 | 8.06 ± 0.17
318.15 K, x1 = 0.6 | 1.41 ± 0.042 | 1400.79 ± 1.7 | 10.43 ± 0.22
318.15 K, x1 = 0.6997 | 1.21 ± 0.037 | 1418.09 ± 1.7 | 12.8 ± 0.27
318.15 K, x1 = 0.7998 | 0.997 ± 0.03 | 1432.4 ± 1.6 | 15.49 ± 0.32
318.15 K, x1 = 0.8818 | 0.883 ± 0.027 | 1442.41 ± 1.6 | 17.84 ± 0.37
318.15 K, x1 = 1 | 0.813 ± 0.024 | 1454.63 ± 1.6 | 21.58 ± 0.44
323.15 K, x1 = 0.05 | 1.64 ± 0.052 | 1154.83 ± 2.2 | –
323.15 K, x1 = 0.0999 | – | 1199.33 ± 2 | –
323.15 K, x1 = 0.1 | 2.17 ± 0.066 | – | 2.13 ± 0.05
323.15 K, x1 = 0.15 | 2.38 ± 0.071 | – | 2.59 ± 0.06
323.15 K, x1 = 0.1999 | 2.41 ± 0.072 | 1265.59 ± 1.9 | 3.01 ± 0.07
323.15 K, x1 = 0.2912 | 2.33 ± 0.07 | 1308.85 ± 1.8 | –
323.15 K, x1 = 0.2996 | – | – | 4.21 ± 0.09
323.15 K, x1 = 0.4005 | 2.1 ± 0.063 | 1347.55 ± 1.7 | 5.59 ± 0.12
323.15 K, x1 = 0.4986 | 1.9 ± 0.057 | 1374.04 ± 1.7 | 7.24 ± 0.15
323.15 K, x1 = 0.6 | 1.64 ± 0.049 | 1395.82 ± 1.7 | 9.27 ± 0.19
323.15 K, x1 = 0.6997 | 1.39 ± 0.042 | 1413.16 ± 1.7 | 11.31 ± 0.24
323.15 K, x1 = 0.7998 | 1.15 ± 0.035 | 1427.49 ± 1.6 | 13.71 ± 0.29
323.15 K, x1 = 0.8818 | 1.03 ± 0.031 | 1437.5 ± 1.6 | 15.72 ± 0.33
323.15 K, x1 = 1 | 0.923 ± 0.028 | 1449.73 ± 1.6 | 18.82 ± 0.39
